The test relates to test organism. The test can be described thus: Microbial growth inhibition test (DSM Delvotest® SP-NT), detection limit of antibiotics in spiked milk, with tomatidine added to the test medium. It counts as cell-based. As to conditions: 64 °C. On the procedure:
As a reference, a commercially available test system without any added steroidal glycoalkaloid aglycone (DSM Delvotest® SP-NT, plates containing 8 x 12 test wells) was used. In addition, four different test systems were prepared by modifying the reference test by adding the steroidal glycoalkaloid aglycone tomatidine to the test medium in a final concentration of 50 ppb, 100 ppb, 500 ppb or 2000 ppb. The detection limits of two different antibiotics were measured in the reference test and in the tests with modified medium containing different concentrations of tomatidine. The antibiotics that were measured were streptomycin and dihydrostreptomycin (DH-streptomycin) (both belonging to the aminoglycoside antibiotic family). Five different concentrations of each antibiotic (see Table 1) were measured. Hundred microliter antibiotic-free milk or hundred microliter milk spiked with the respective concentrations of antibiotic was added to the test medium (170 µl) and incubated at 64 °C in a water bath. The tests were visually determined at the point in time where a sample without antibiotic had changed colour from purple to yellow. At this point, the plates were cooled in an ice bath for 5 minutes. The cooled plates were scanned on a Delvo® scanner. The colour of each well was expressed as a Z-value; a purple colour gives rise to a positive Z-value, while a yellow colour has a negative Z-value. The Z-value of test results with samples without antibiotic is typically -5 < Z < -10. Detailed description of the scanning technology and the expression of the colour in Z-values are described in WO 03/033728. For the determination of the detection limit for each antibiotic, a dose-response function (Z-value versus concentration of antibiotic) was constructed. The detection limit is defined as the antibiotic concentration where the S-shaped dose-response function has a Z-value equal to the cut-off value.

Where [1] appears, read: Tomatidine concentration in test 0 ppb (reference Delvotest® SP-NT), cut-off Z-value 0.
Where [2] appears, read: Tomatidine concentration in test 50 ppb, cut-off Z-value 0, tomatidine 50 ppb in test.
Where [3] appears, read: Tomatidine concentration in test 100 ppb, cut-off Z-value 0, tomatidine 100 ppb in test.
Where [4] appears, read: Tomatidine concentration in test 500 ppb, cut-off Z-value 0, tomatidine 500 ppb in test.
[5] abbreviates: Tomatidine concentration in test 2000 ppb, cut-off Z-value 0, tomatidine 2000 ppb in test.

SMILES strings stand for the structures.

On to `CN[C@@H]1[C@H](O[C@H]2[C@H](O[C@H]3[C@H](O)[C@@H](O)[C@H](NC(=N)N)[C@@H](O)[C@@H]3NC(=N)N)O[C@@H](C)[C@]2(O)CO)O[C@@H](CO)[C@H](O)[C@H]1O` [DH-streptomycin, dihydrostreptomycin], for which the Detection limit is, setting by setting: under setting [1], 1471 ppb; under setting [2], 1075 ppb; under setting [3], 365 ppb; under setting [4], 150 ppb; under setting [5], 115 ppb.
In the same order, the values of `[H]/N=C(/N)N[C@H]1[C@H](O)[C@@H](O)[C@H](O[C@@H]2O[C@@H](C)[C@](O)(C=O)[C@H]2O[C@@H]2O[C@@H](CO)[C@H](O)[C@@H](O)[C@@H]2NC)[C@@H](N/C(N)=N\[H])[C@@H]1O` [Streptomycin, streptomycin] are 2005 ppb, 1523 ppb, 398 ppb, 295 ppb and 79 ppb.
